Our source for the Ki and Ratio values is ChEMBL document CHEMBL1131980, “New class of biphenylene dibenzazocinones as potent ligands for the human EP1 prostanoid receptor” (Bioorg Med Chem Lett, 1999).

The structures appear in SMILES notation. Bounds are passed on as bounds.

Assay [1] concerns the target T1, Prostaglandin E2 receptor EP3 subtype (Homo sapiens, UniProt P43115).
T1 sequence (P43115 whole entry): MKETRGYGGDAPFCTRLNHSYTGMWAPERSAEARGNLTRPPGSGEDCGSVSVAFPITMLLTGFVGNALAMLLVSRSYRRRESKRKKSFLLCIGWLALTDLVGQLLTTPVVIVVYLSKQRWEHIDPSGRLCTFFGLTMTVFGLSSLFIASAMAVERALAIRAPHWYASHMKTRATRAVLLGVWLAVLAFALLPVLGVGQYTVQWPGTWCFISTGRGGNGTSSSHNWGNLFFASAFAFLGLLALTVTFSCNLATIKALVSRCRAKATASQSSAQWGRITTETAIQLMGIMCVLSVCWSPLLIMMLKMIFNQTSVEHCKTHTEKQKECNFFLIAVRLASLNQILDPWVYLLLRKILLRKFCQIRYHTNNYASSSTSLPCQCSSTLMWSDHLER
The assay can be described thus: Affinity at human EP3 receptor.

Assay [2] concerns the target Prostaglandin E2 receptor EP4 subtype (Homo sapiens, UniProt P35408). The assay can be described thus: Affinity at human EP4 receptor.
Assay [3] has as its target T2, Prostaglandin E2 receptor EP1 subtype (Homo sapiens, UniProt P34995).
T2 sequence (P34995 whole entry): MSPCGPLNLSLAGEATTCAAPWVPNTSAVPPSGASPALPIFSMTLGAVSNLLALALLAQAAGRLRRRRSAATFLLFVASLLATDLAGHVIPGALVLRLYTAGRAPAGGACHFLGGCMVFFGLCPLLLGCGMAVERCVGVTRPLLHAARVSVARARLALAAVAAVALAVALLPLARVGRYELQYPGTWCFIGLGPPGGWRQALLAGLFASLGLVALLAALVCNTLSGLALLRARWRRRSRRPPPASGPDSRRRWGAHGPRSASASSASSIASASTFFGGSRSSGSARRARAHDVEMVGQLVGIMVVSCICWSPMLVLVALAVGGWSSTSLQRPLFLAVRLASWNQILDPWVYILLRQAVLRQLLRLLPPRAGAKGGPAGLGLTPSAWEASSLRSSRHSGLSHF
Briefly: Affinity at human EP1 receptor.

Assay [4] has as its target Prostaglandin E2 receptor EP2 subtype (Homo sapiens, UniProt P43116). The assay can be described thus: Affinity at human EP2 receptor.
Assay [5] has as its target T3, Prostaglandin D2 receptor (Homo sapiens, UniProt Q13258).
T3 sequence (Q13258 whole entry): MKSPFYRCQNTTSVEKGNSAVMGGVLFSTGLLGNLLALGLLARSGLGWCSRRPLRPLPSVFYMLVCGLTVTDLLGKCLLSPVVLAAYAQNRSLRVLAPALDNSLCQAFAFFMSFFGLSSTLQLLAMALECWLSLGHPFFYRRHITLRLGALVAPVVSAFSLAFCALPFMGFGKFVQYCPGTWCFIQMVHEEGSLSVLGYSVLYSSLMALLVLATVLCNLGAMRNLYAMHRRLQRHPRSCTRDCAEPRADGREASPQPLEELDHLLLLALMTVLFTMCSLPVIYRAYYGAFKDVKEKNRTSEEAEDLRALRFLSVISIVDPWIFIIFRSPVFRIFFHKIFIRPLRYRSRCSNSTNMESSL
The assay can be described thus: Compound was evaluated for its secondary binding affinity to human DP receptors by using Aequorin luminescence-based functional calcium assay.

For another assay, the target named is T4, Thromboxane A2 receptor (Homo sapiens, UniProt P21731).
T4 sequence (P21731 whole entry): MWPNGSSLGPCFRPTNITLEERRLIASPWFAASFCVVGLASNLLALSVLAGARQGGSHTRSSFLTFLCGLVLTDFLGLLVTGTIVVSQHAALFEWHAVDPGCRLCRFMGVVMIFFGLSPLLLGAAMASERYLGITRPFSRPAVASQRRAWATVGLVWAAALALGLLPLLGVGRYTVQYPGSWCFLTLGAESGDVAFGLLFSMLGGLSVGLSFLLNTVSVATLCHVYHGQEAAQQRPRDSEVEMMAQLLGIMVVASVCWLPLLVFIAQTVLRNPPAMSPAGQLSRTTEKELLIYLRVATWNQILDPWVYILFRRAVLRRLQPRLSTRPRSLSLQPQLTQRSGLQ
The assay can be described thus: Compound was evaluated for its secondary binding affinity to human TP receptors by using Aequorin luminescence-based functional calcium assay.

A further assay concerns the target Prostacyclin receptor (Homo sapiens, UniProt P43119). The assay can be described thus: Compound was evaluated for its secondary binding affinity to human IP receptors by using Aequorin luminescence-based functional calcium assay.
Assay [6] addresses Prostaglandin F2-alpha receptor (Homo sapiens, UniProt P43088). Briefly: Compound was evaluated for its secondary binding affinity to human FP receptors by using Aequorin luminescence-based functional calcium assay.
A short description of assay [7]: Compound was evaluated for ratio of Ki's of EP3 and EP1.

Prostacyclin receptor, sequence (P43119 whole entry): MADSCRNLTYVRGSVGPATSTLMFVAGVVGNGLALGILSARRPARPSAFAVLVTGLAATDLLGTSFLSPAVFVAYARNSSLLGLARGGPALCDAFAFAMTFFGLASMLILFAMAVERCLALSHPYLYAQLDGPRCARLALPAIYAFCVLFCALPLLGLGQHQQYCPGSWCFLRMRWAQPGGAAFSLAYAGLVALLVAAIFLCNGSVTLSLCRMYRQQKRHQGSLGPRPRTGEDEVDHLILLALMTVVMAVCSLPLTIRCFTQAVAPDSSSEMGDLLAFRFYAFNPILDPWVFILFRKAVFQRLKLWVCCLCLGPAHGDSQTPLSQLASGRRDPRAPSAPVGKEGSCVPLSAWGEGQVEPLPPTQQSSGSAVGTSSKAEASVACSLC
Prostaglandin E2 receptor EP4 subtype, sequence (P35408 whole entry): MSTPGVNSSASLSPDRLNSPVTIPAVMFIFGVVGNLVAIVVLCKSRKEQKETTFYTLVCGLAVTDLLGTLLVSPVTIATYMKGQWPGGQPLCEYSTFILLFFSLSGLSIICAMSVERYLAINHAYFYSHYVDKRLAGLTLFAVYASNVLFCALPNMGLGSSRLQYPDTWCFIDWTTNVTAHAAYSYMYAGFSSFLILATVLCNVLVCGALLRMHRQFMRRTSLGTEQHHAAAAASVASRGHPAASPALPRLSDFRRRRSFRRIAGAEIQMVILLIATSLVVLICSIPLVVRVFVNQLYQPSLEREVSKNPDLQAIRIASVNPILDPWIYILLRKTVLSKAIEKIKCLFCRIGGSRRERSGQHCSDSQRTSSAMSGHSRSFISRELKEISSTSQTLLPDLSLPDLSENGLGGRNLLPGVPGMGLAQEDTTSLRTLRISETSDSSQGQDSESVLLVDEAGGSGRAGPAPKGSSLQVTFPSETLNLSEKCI
Prostaglandin F2-alpha receptor, sequence (P43088 whole entry): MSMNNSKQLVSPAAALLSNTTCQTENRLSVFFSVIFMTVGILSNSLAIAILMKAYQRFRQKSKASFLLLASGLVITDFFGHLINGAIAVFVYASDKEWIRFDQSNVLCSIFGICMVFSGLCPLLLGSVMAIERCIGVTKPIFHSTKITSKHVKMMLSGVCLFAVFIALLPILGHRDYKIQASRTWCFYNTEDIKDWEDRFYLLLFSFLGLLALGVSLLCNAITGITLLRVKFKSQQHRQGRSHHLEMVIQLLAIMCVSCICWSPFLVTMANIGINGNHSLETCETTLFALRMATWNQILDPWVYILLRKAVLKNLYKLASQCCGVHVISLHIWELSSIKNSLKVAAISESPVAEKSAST
Prostaglandin E2 receptor EP2 subtype, sequence (P43116 whole entry): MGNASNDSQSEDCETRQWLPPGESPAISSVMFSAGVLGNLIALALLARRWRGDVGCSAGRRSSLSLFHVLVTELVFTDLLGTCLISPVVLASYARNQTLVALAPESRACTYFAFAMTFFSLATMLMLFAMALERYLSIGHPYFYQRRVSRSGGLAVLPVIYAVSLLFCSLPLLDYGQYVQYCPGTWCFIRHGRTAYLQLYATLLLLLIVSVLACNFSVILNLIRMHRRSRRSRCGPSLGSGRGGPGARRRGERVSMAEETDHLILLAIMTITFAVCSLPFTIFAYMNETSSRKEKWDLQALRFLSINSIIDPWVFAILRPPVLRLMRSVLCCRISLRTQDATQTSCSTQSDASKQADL

`O=C(CCc1ccccc1)NS(=O)(=O)c1ccccc1-c1ccc(CN2C(=O)c3ccccc3CCc3ccccc32)cc1`: the Ki (as a rule, the dissociation constant of the complex between target and ligand, obtained from inhibition or displacement) was 3.6 µM in assay [1], 13 µM in assay [2], 0.047 µM in assay [3] and > 100 µM in assay [4].
`O=C(Nc1ccccc1)NS(=O)(=O)c1ccccc1-c1ccc(CN2C(=O)c3ccccc3CCc3ccccc32)cc1`: the Ki in assay [1] stood at 4.6 µM; in [2] it was 19 µM; in [3] it was 21 µM; in assay [4] it was 16 µM.
In the case of `O=C(NCCc1cccs1)NS(=O)(=O)c1ccccc1-c1ccc(Cn2c(=O)c3ccccc3c3ccccc32)cc1`, in assay [3], affinity was put at a Ki of 1.2 µM.
On to `CO[C@](C(=O)NS(=O)(=O)c1ccccc1-c1ccc(CN2C(=O)c3ccccc3CCc3ccccc32)cc1)(c1ccccc1)C(F)(F)F`, for which the inhibition constant Ki in [5] worked out at 2 µM; in assay [1] it was 1.3 µM; in assay [2], 4 µM; in assay [3], 0.012 µM; on Thromboxane A2 receptor it was 1.5 µM; in assay [4] it was 11 µM. For the same compound, the Ki came out at 13 µM on Prostacyclin receptor and 3.8 µM in assay [6].
In the case of `O=C(NCc1ccccc1)NS(=O)(=O)c1ccccc1-c1ccc(CN2C(=O)c3ccccc3CCc3ccccc32)cc1`, the inhibition constant Ki is 13 µM in [1], > 100 µM in [2], 0.2 µM in assay [3] and > 100 µM in [4].
Take `CN(C(=O)NCCc1ccccc1)S(=O)(=O)c1ccccc1-c1ccc(CN2C(=O)c3ccccc3CCc3ccccc32)cc1`: the Ki in assay [1] is > 100 µM; in [2], > 100 µM; in assay [3] it was 0.36 µM; in assay [4], > 100 µM.
For `O=C(NCCc1ccccc1)NS(=O)(=O)c1ccccc1-c1ccc(CN2C(=O)c3ccccc3CCc3ccccc32)cc1`, the inhibitory constant (Ki) was 51.2 µM in assay [1], > 100 µM in [2], 0.12 µM in assay [3] and > 100 µM in assay [4].
Turning to `CN(CCc1ccccc1)C(=O)NS(=O)(=O)c1ccccc1-c1ccc(CN2C(=O)c3ccccc3CCc3ccccc32)cc1`, the Ki in [5] was 2.87 µM; in assay [1] it was 5 µM; in assay [2] it was 1.1 µM; in [3], 0.017 µM; at Thromboxane A2 receptor, 2.1 µM; in assay [4] it was 23 µM. In addition, the inhibition constant Ki at Prostacyclin receptor is 52 µM; in assay [6], 6.2 µM.
As for `CO[C@@](C(=O)NS(=O)(=O)c1ccccc1-c1ccc(CN2C(=O)c3ccccc3CCc3ccccc32)cc1)(c1ccccc1)C(F)(F)F`, the Ki in assay [1] was 1.6 µM; in assay [2] it was 3 µM; in assay [3] it was 0.05 µM; in [4] it was 13 µM.
For the compound `CC(C)(Cc1ccccc1)C(=O)NS(=O)(=O)c1ccccc1-c1ccc(CN2C(=O)c3ccccc3CCc3ccccc32)cc1`, the Ki is 4 µM in assay [5]; 16 µM in [1]; 2.4 µM in assay [2]; 0.018 µM in [3]; 1.1 µM on Thromboxane A2 receptor; > 100 µM in assay [4]. For the same compound, the Ki at Prostacyclin receptor is 21 µM; in assay [6], 1.3 µM.
Consider `O=C(Cc1ccccc1)NS(=O)(=O)c1ccccc1-c1ccc(CN2C(=O)c3ccccc3CCc3ccccc32)cc1`, for which the inhibition constant Ki is 2.8 µM in assay [1], > 100 µM in assay [2], 0.057 µM in [3] and 14 µM in assay [4].
For `O=C(NS(=O)(=O)c1ccccc1-c1ccc(CN2C(=O)c3ccccc3CCc3ccccc32)cc1)OCc1ccccc1`, the Ki in assay [1] amounted to 2.4 µM; in assay [2] it was 6 µM; in [3] it was 0.15 µM; in assay [4], 11 µM.
`CC(C(=O)NS(=O)(=O)c1ccccc1-c1ccc(CN2C(=O)c3ccccc3CCc3ccccc32)cc1)c1ccccc1` (centres undefined): the Ki in [5] was 2.8 µM; in assay [1], 5 µM; in assay [2], 20 µM; in assay [3] it was 0.016 µM; on Thromboxane A2 receptor it was 2.8 µM; in assay [4], > 100 µM. In addition, the inhibitory constant (Ki) at Prostacyclin receptor came out at 28.3 µM; in assay [6], 5.3 µM.
Regarding `CC(C)(C)NC(=O)NS(=O)(=O)c1ccccc1-c1ccc(CN2C(=O)c3ccccc3CCc3ccccc32)cc1`, the inhibition constant Ki in assay [1] was 1.2 µM; in [2] it was 4.7 µM; in assay [3], 0.77 µM; in assay [4], > 100 µM. The Ratio in [7] stood at 1.7.
On to `CC(C)(C(=O)NS(=O)(=O)c1ccccc1-c1ccc(CN2C(=O)c3ccccc3CCc3ccccc32)cc1)c1ccccc1`, for which the Ki in assay [5] came out at 2.4 µM; in assay [1], 4 µM; in [2] it was 5 µM; in assay [3], 0.01 µM; at Thromboxane A2 receptor, 3 µM; in assay [4], 23 µM. Further, the Ki worked out at 21 µM on Prostacyclin receptor and 5 µM in assay [6].
For the compound `O=C(COc1ccccc1)NS(=O)(=O)c1ccccc1-c1ccc(CN2C(=O)c3ccccc3CCc3ccccc32)cc1`, the Ki came to 4.7 µM in assay [1], 7 µM in [2], 0.14 µM in assay [3] and 22 µM in assay [4].
Consider `O=C(NCCc1cccs1)NS(=O)(=O)c1ccccc1-c1ccc(CN2C(=O)c3ccccc3CCc3ccccc32)cc1`, for which the Ki is 2.2 µM in assay [1], > 100 µM in assay [2], 0.1 µM in assay [3] and > 100 µM in assay [4].
In the case of `O=C1c2ccccc2CCc2ccccc2N1Cc1ccc(-c2ccccc2S(=O)(=O)N(Cc2ccccc2)C(=O)NCCc2ccccc2)cc1`, the inhibition constant (Ki) in assay [1] was > 100 µM; in [2], > 100 µM; in [3], 51 µM; in assay [4], > 100 µM.
With `O=C(NCCCc1ccccc1)NS(=O)(=O)c1ccccc1-c1ccc(CN2C(=O)c3ccccc3CCc3ccccc32)cc1`, the Ki was > 100 µM in assay [1], > 100 µM in [2], 0.4 µM in assay [3] and > 100 µM in assay [4].
In [3], `O=C(NCCc1cccs1)NS(=O)(=O)c1ccccc1-c1ccc(CN2Cc3ccccc3CCc3ccccc32)cc1` displayed a Ki of 2.8 µM.
Regarding `CCCCNC(=O)NS(=O)(=O)c1ccccc1-c1ccc(CN2C(=O)c3ccccc3CCc3ccccc32)cc1`, the Ki was 6 µM in [1], > 100 µM in assay [2], 0.22 µM in assay [3] and > 100 µM in assay [4].
With `C[C@H](NC(=O)NS(=O)(=O)c1ccccc1-c1ccc(CN2C(=O)c3ccccc3CCc3ccccc32)cc1)c1ccccc1`, the Ki in assay [1] was 4.7 µM; in [2], 6.9 µM; in assay [3] it was 0.14 µM; in assay [4], 21 µM.
`O=C(NCCc1cccs1)NS(=O)(=O)c1ccccc1-c1ccc(CN2C(=O)c3ccccc3Oc3ccccc32)cc1` came in with a Ki in [3] of 10.8 µM.
